# Assay results published in patent US20140005163A1 (NOVARTIS AG, priority 2010, published 2014).
# Where two headings read alike, the source gives them in different places.
# What was measured:
# [1] = biological target: T1, PI3K delta (Homo sapiens, UniProt O00329); experiment: PI3K delta kinase assay (Kinase-Glo luminescence); format: biochemical
# T1 construct: for the full-length p110-d subunit are generated and fused by overlapping PCR; p85(iSH2) fusion partner (see partner chain) (N); His tag (C); made in house; host or cells: baculovirus; Tn5 (Trichoplusia ni) or TiniPro insect cells
# Summary of the method: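 Construct BV-1060, p85 iSH2–linker–full-length p110δ, His-tagged, at 10 nM, with 1 μM ATP and 10 μg/mL phosphatidylinositol in pH 7.5 Tris, 3 mM MgCl2, 50 mM NaCl, 0.05% CHAPS. Run 60 min at room temperature; remaining ATP read by Kinase-Glo luminescence; IC50 from 4-parameter logistic fit of 8 concentrations.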
# [2] = system: PKB Ser473 phosphorylation in Rat1-myr-HA-p110 beta cells; experiment: Reverse protein array assay, PKB Ser473 phosphorylation in Rat1-myr-p110 beta cells; format: cell-based; conditions: 0.5 h, pAkt Ser473, 30 minutes incubation, read-out: p-PKB IC50
# Summary of the method: (§1)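 Measured: PKB Ser473 phosphorylation by reverse protein array in Rat1 cells expressing myr-HA-p110 alpha, beta or delta, after 30 min compound treatment at 37 °C with 0.2% DMSO vehicle.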
# [3] = Solubility at pH 6.8; format: physicochemical
# Summary of the method: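 Solubility was measured at pH 6.8 following the cited Zhou et al. (2007) procedure.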
# [4] = system: PKB Ser473 phosphorylation in Rat1-myr-HA-p110 delta cells; experiment: Reverse protein array assay, PKB Ser473 phosphorylation in Rat1-myr-p110 delta cells; format: cell-based; conditions: read-out: p-PKB IC50
# Summary of the method: as §1
# [5] = system: PKB Ser473 phosphorylation in Rat1-myr-HA-p110 alpha cells; experiment: Reverse protein array assay, PKB Ser473 phosphorylation in Rat1-myr-p110 alpha cells; format: cell-based; conditions: 0.5 h, pAkt Ser473, 30 minutes compound incubation, read-out: p-PKB IC50
# Summary of the method: as §1
# [6] = pH 6.8, aqueous buffer, thermodynamic from solid, read-out: solubility
# T1 sequence (O00329 with tags, fused parts or gaps limits assumed): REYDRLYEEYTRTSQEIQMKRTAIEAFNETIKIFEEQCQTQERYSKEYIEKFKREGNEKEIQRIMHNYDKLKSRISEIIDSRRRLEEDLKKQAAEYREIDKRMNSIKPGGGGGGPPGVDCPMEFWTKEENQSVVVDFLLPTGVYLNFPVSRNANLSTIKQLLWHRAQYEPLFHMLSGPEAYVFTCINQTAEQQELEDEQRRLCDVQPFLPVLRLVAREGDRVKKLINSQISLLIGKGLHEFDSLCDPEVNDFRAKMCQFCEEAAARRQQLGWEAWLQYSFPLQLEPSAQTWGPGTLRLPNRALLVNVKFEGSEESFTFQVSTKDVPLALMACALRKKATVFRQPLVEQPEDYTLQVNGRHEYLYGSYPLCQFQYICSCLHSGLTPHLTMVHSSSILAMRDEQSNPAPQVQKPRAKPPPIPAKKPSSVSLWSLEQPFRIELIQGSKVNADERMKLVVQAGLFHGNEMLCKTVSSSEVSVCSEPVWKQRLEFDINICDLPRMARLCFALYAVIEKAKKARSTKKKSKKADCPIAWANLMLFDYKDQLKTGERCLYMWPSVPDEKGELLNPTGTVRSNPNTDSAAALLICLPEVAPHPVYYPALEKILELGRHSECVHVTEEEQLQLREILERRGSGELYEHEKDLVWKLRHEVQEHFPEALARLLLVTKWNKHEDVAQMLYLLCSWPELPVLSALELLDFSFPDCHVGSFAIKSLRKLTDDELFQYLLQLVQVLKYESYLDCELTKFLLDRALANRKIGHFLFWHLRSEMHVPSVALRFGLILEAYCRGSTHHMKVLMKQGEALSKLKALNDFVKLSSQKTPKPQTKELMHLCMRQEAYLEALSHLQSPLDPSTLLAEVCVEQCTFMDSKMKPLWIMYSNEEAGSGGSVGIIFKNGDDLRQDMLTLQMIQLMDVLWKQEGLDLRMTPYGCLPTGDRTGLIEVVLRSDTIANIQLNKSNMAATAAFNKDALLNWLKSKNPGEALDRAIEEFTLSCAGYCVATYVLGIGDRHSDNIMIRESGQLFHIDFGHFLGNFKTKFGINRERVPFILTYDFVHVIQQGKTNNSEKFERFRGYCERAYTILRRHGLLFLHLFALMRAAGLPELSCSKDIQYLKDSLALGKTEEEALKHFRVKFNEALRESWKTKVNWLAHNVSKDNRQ
smiles,measurement,setting,value
"Cc1nn(C)cc1-n1c(=O)n(C)c2cnc3ccc(-c4ccc(-n5cccn5)nc4)cc3c21 [Example 79, 1-(1,3-Dimethyl-1H-pyrazol-4-yl)-3-methyl-8-(6-pyrazol-1-yl-pyridin-3-yl)-1,3-dihydro-imidazo[4,5-c]quinolin-2-one]",IC50,[1],318 nM
same,IC50,[2],7 nM
same,solubility,[3]; pH 6.8,2 µg/mL
same,IC50,[4],16 nM
same,IC50,[5],1 nM
"Cc1ncc(-c2ccc3ncc4c(c3c2)n(-c2cn(C)nc2C)c(=O)n4C)cc1OC(C)C [Example 84.1, 1-(1,3-Dimethyl-1H-pyrazol-4-yl)-8-(5-isopropoxy-6-methyl-pyridin-3-yl)-3-methyl-1,3-dihydro-imidazo[4,5-c]quinolin-2-one]",IC50,[1],4 nM
same,IC50,[2],8 nM
same,solubility,[3]; [6],219 µg/mL
same,IC50,[4],18 nM
same,IC50,[5],< 5 nM
"CCNc1cc(-c2ccc3ncc4c(c3c2)n(-c2c(C)nn(CC(=O)N(C)C)c2C)c(=O)n4C)cnc1C [Example 87.5, 2-{4-[8-(5-Ethylamino-6-methyl-pyridin-3-yl)-3-methyl-2-oxo-2,3-dihydro-imidazo[4,5-c]quinolin-1-yl]-3,5-dimethyl-pyrazol-1-yl}-N,N-dimethyl-acetamide]",IC50,[1],35 nM
same,IC50,[2],407 nM
same,solubility,[3]; [6],> 513 µg/mL
same,IC50,[4],634 nM
same,IC50,[5],237 nM
"CCNc1cc(-c2ccc3ncc4c(c3c2)n(-c2c(C)nn(CCOC)c2C)c(=O)n4C)cnc1OC [Example 90.2, 8-(5-Ethylamino-6-methoxy-pyridin-3-yl)-1-[1-(2-methoxy-ethyl)-3,5-dimethyl-1H-pyrazol-4-yl]-3-methyl-1,3-dihydro-imidazo[4,5-c]quinolin-2-one]",IC50,[1],26 nM
same,IC50,[2],10 nM
same,solubility,[3]; [6],> 502 µg/mL
same,IC50,[4],46 nM
same,IC50,[5],17 nM
"Cc1nn(C)cc1-n1c(=O)n(C)c2cnc3ccc(-c4cnc5cc[nH]c5c4)cc3c21 [Example 99, 1-(1,3-Dimethyl-1H-pyrazol-4-yl)-3-methyl-8-(1H-pyrrolo[3,2-b]pyridin-6-yl)-1,3-dihydro-imidazo[4,5-c]quinolin-2-one]",IC50,[1],6 nM
same,IC50,[2],16 nM
same,solubility,[3]; pH 6.8,2 µg/mL
same,IC50,[4],19 nM
same,IC50,[5],13 nM
"Cc1nn(C)cc1-n1c(=O)n(C)c2cnc3ccc(-c4ccc(OCCO)nc4)cc3c21 [Example 107, 1-(1,3-Dimethyl-1H-pyrazol-4-yl)-8-[6-(2-hydroxy-ethoxy)-pyridin-3-yl]-3-methyl-1,3-dihydro-imidazo[4,5-c]quinolin-2-one]",IC50,[1],28 nM
same,IC50,[2],101 nM
same,solubility,[3]; [6],49 µg/mL
same,IC50,[4],193 nM
same,IC50,[5],85 nM
"CCOc1ccc(-c2ccc3ncc4[nH]c(=O)n(-c5cn(C)nc5C)c4c3c2)cn1 [Example 110, 1-(1,3-Dimethyl-1H-pyrazol-4-yl)-8-(6-ethoxy-pyridin-3-yl)-1,3-dihydro-imidazo[4,5-c]quinolin-2-one]",IC50,[1],42 nM
same,IC50,[2],113 nM
same,solubility,[3]; pH 6.8,2 µg/mL
same,IC50,[4],196 nM
same,IC50,[5],67 nM
"CNc1ccc(-c2ccc3ncc4c(c3c2)n(-c2cn(C)nc2C)c(=O)n4C)cn1 [Example 118.2, 1-(1,3-Dimethyl-1H-pyrazol-4-yl)-3-methyl-8-(6-methylamino-pyridin-3-yl)-1,3-dihydro-imidazo[4,5-c]quinolin-2-one]",IC50,[1],13 nM
same,IC50,[2],< 5 nM
same,solubility,[3]; [6],30 µg/mL
same,IC50,[4],10 nM
same,IC50,[5],< 5 nM
"CCn1cc(-n2c(=O)n(C)c3cnc4ccc(-c5ccc(NC)nc5)cc4c32)c(C)n1 [Example 118.4, 1-(1-Ethyl-3-methyl-1H-pyrazol-4-yl)-3-methyl-8-(6-methylamino-pyridin-3-yl)-1,3-dihydro-imidazo[4,5-c]quinolin-2-one]",IC50,[1],19 nM
same,IC50,[2],< 5 nM
same,solubility,[3]; [6],70 µg/mL
same,IC50,[4],21 nM
same,IC50,[5],< 5 nM
"Cc1nn(C)cc1-n1c(=O)n(C)c2cnc3ccc(-c4cncc(N(C)S(C)(=O)=O)c4)cc3c21 [Example 121, N-{5-[1-(1,3-Dimethyl-1H-pyrazol-4-yl)-3-methyl-2-oxo-2,3-dihydro-1H-imidazo[4,5-c]quinolin-8-yl]-pyridin-3-yl}-N-methyl-methanesulfonamide]",IC50,[1],18 nM
same,IC50,[2],444 nM
same,solubility,[3]; [6],47 µg/mL
same,IC50,[4],341 nM
same,IC50,[5],254 nM
"COc1ncc(-c2ccc3ncc4c(c3c2)n(-c2cn(C)nc2C)c(=O)n4C)cc1C(N)=O [Example 125.2, 5-[1-(1,3-Dimethyl-1H-pyrazol-4-yl)-3-methyl-2-oxo-2,3-dihydro-1H-imidazo[4,5-c]quinolin-8-yl]-2-methoxy-nicotinamide]",IC50,[1],40 nM
same,IC50,[2],187 nM
same,solubility,[3]; pH 6.8,2 µg/mL
same,IC50,[4],61 nM
same,IC50,[5],82 nM
"COc1ncc(-c2ccc3ncc4c(c3c2)n(-c2cn(C)nc2C)c(=O)n4C)cc1C#N [Example 132, 5-[1-(1,3-Dimethyl-1H-pyrazol-4-yl)-3-methyl-2-oxo-2,3-dihydro-1H-imidazo[4,5-c]quinolin-8-yl]-2-methoxy-nicotinonitrile]",IC50,[1],58 nM
same,IC50,[2],99 nM
same,solubility,[3]; [6],17 µg/mL
same,IC50,[4],145 nM
same,IC50,[5],51 nM
"CNc1ncc(-c2ccc3ncc4c(c3c2)n(-c2c(C)nn(C)c2C)c(=O)n4C)cc1F [Example 141.1, 8-(5-Fluoro-6-methylamino-pyridin-3-yl)-3-methyl-1-(1,3,5-trimethyl-1H-pyrazol-4-yl)-1,3-dihydro-imidazo[4,5-c]quinolin-2-one]",IC50,[1],44 nM
same,IC50,[2],162 nM
same,solubility,[3]; [6],> 431 µg/mL
same,IC50,[4],403 nM
same,IC50,[5],150 nM
"CNc1ncc(-c2ccc3ncc4c(c3c2)n(-c2cn(C)nc2C)c(=O)n4C)cc1F [Example 141.2, 1-(1,3-Dimethyl-1H-pyrazol-4-yl)-8-(5-fluoro-6-methylamino-pyridin-3-yl)-3-methyl-1,3-dihydro-imidazo[4,5-c]quinolin-2-one]",IC50,[1],98 nM
same,IC50,[2],< 5 nM
same,solubility,[3]; pH 6.8,2 µg/mL
same,IC50,[4],21 nM
same,IC50,[5],< 5 nM
"Cc1nn(C)c(C)c1-n1c(=O)n(C)c2cnc3ccc(-c4cnc(N)c(F)c4)cc3c21 [Example 142.1, 8-(6-Amino-5-fluoro-pyridin-3-yl)-3-methyl-1-(1,3,5-trimethyl-1H-pyrazol-4-yl)-1,3-dihydro-imidazo[4,5-c]quinolin-2-one]",IC50,[1],4 nM
same,IC50,[2],300 nM
same,solubility,[3]; [6],> 417 µg/mL
same,IC50,[4],306 nM
same,IC50,[5],157 nM
"CNc1ncc(-c2ccc3ncc4c(c3c2)n(-c2c(C)nn(C)c2C)c(=O)n4C)cc1Cl [Example 146.4, 8-(5-Chloro-6-methylamino-pyridin-3-yl)-3-methyl-1-(1,3,5-trimethyl-1H-pyrazol-4-yl)-1,3-dihydro-imidazo[4,5-c]quinolin-2-one]",IC50,[1],19 nM
same,IC50,[2],127 nM
same,solubility,[3]; [6],75 µg/mL
same,IC50,[4],133 nM
same,IC50,[5],70 nM
"CNc1ncc(-c2ccc3ncc4c(c3c2)n(-c2cc(C)nn2C)c(=O)n4C)cc1Cl [Example 146.5, 8-(5-Chloro-6-methylamino-pyridin-3-yl)-1-(2,5-dimethyl-2H-pyrazol-3-yl)-3-methyl-1,3-dihydro-imidazo[4,5-c]quinolin-2-one]",IC50,[1],3 nM
same,IC50,[2],29 nM
same,solubility,[3]; [6],3 µg/mL
same,IC50,[4],59 nM
same,IC50,[5],12 nM
"Cc1noc(C)c1-n1c(=O)n(C)c2cnc3ccc(-c4cnc(N)c(Cl)c4)cc3c21 [Example 148.4, 8-(6-Amino-5-chloro-pyridin-3-yl)-1-(3,5-dimethyl-isoxazol-4-yl)-3-methyl-1,3-dihydro-imidazo[4,5-c]quinolin-2-one]",IC50,[1],45 nM
same,IC50,[2],207 nM
same,solubility,[3]; [6],3 µg/mL
same,IC50,[4],370 nM
same,IC50,[5],151 nM
"CNc1cc(-c2ccc3ncc4c(c3c2)n(-c2cn(C)nc2C)c(=O)n4C)cnc1F [Example 150.2, 1-(1,3-Dimethyl-1H-pyrazol-4-yl)-8-(6-fluoro-5-methylamino-pyridin-3-yl)-3-methyl-1,3-dihydro-imidazo[4,5-c]quinolin-2-one]",IC50,[1],7 nM
same,IC50,[2],10 nM
same,solubility,[3]; [6],4 µg/mL
same,IC50,[4],15 nM
same,IC50,[5],7 nM
"CCNc1cc(-c2ccc3ncc4c(c3c2)n(-c2c(C)nn(C)c2C)c(=O)n4C)cnc1F [Example 154.1, 8-(5-Ethylamino-6-fluoro-pyridin-3-yl)-3-methyl-1-(1,3,5-trimethyl-1H-pyrazol-4-yl)-1,3-dihydro-imidazo[4,5-c]quinolin-2-one]",IC50,[1],37 nM
same,IC50,[2],104 nM
same,solubility,[3]; pH 6.8,2 µg/mL
same,IC50,[4],141 nM
same,IC50,[5],102 nM
"Cc1ncc(-c2ccc3ncc4c(c3c2)n(-c2cn(C)nc2C)c(=O)n4C)cc1N(C)C [Example 164, 8-(5-Dimethylamino-6-methyl-pyridin-3-yl)-1-(1,3-dimethyl-1H-pyrazol-4-yl)-3-methyl-1,3-dihydro-imidazo[4,5-c]quinolin-2-one]",IC50,[1],4 nM
same,IC50,[2],< 5 nM
same,solubility,[3]; [6],400 µg/mL
same,IC50,[4],7 nM
same,IC50,[5],< 5 nM
